Assays:
Male C57BL/6NCrl mice = test: Test Example 2: Increase in spontaneous movement; assay type: in vivo; settings: orally administered 10 mg/kg, measured 2 hours after administration, control group as 100%
Procedure: Similar to increase in body temperature or increase in cardiovascular parameters such as blood pressure, increased movement in mice is one of indicator for wakefulness. In this test example, the alertness effect was evaluated by measuring spontaneous movement of the mice. Male C57BL/6NCrl mice (18-19 weeks old, Charles River Laboratories, Japan Inc., 4 mice in each group) were used for the experiment. Spontaneous movement was measured by using a movement measuring device (VersaMax Oven Field, AccuScan Instruments, Inc.), irradiating infrared rays from the side sections of the measuring cage, and quantifying the number of times that the mice passed through the irradiation. After placing the mice in the measuring cage and conditioning for 3 hours, the compound was orally administered (10 mg/kg). Spontaneous movement was measured 2 hours after administration. The test compound-administered group was administered a solution of the test compound dissolved in 0.1 moL/L hydrochloric acid containing 5% (v/v) DMSO and 5% (v/v) Kolliphor™ EL. For the control group, solvent alone without the test compound was administered to the mice.
Spontaneous movement was represented as a percentage for the test compound-administered group, with spontaneous movement in the control group as 100%.

human OX2R (hOX2R) = human OX2R (hOX2R) (Homo sapiens (Human), UniProt O43614); test: Test Example 1-1: Evaluation of activity for OX2R (calcium flux, HEK293 with forced expression); assay type: cell-based; settings: HEK293 cells expressing hOX2R; intracellular calcium; 10 nM OX-A as 100%; up to 1×10^−7 M
Procedure: HEK293 (human embryonic kidney 293) cells with forced expression of human OX1R (hOX1R) or human OX2R (hOX2R) were seeded in a 384-well microplate (Greiner) at 10,000 per well and cultured for 1 day in high-glucose-DMEM (FujiFilm Corp.—Wako Pure Chemical Industries, Ltd.) containing added 10% FBS (Tenno Scientific) and 1% Penicillin-Streptomycin (FujiFilm Corp.—Wako Pure Chemical Industries, Ltd.). After removing the medium, 40 μL of assay buffer (20 mM HEPES (Sigma-Aldrich Japan, KK.), Hanks' balanced salt solution (Gibco), 0.1% BSA (Sigma-Aldrich Japan, KK.), 0.1% Pluronic F-127 (Invitrogen)) containing Calcium 4 dye (Molecular Device Corporation) and 2.5 mM probenecid (Sigma-Aldrich Japan, KK.) were added, and the plate was incubated for 60 minutes. After further adding 20 μL of assay buffer, 20 μL of assay buffer containing the test compound was added and reaction was initiated. Change in intracellular calcium ion concentration during the reaction was measured based on the fluorescence intensity ratio in terms of the fluorescence value with wavelength excitation at 480 nm and detection at 540 nm, using FDSS7000 (Hamamatsu Photonics, K.K.). The test compound was dissolved in DMSO to 10 mM, and diluted with assay buffer to a final concentration of from 3×10^−11 M to 1×10^−7 M (DMSO final concentration of 0.1%). […]

hOX2R = hOX2R (Homo sapiens (Human), UniProt O43614); test: Test Example 1-2: Evaluation of activating activity for OX2R (calcium flux, HEK293 with forced expression); assay type: cell-based; settings: HEK293 cells expressing hOX2R; intracellular calcium; 30 nM OX-A as 100%; up to 1×10^−5 M
Procedure: (§1) Human Embryonic Kidney cells 293 (HEK293) cells with forced expression of hOX1R or hOX2R were seeded in a 384-well microplate (Greiner) at 10,000 per well and cultured for 1 day in high-glucose-DMEM (FujiFilm Corp.—Wako Pure Chemical Industries, Ltd.) containing added 10% FBS (Thermo Scientific) and 1% Penicillin-Streptomycin (FujiFilm Corp.—Wako Pure Chemical Industries, Ltd.). After removing the medium, 30 μL of assay buffer (20 mM HEPES (Sigma-Aldrich Japan, KK.), Hank's balanced salt solution (Gibco), 0.1% BSA (Sigma-Aldrich Japan, KK.), 0.1% Pluronic F-127 (Invitrogen)) containing Calcium 4 dye (Molecular Device Corporation) and 2.5 mM probenecid (Sigma-Aldrich Japan, KK.) were added, and the mixture was incubated for 60 minutes. A 30 μL portion of assay buffer containing the test compound was added and reaction was initiated. Change in intracellular calcium ion concentration by the reaction was measured based on the fluorescence intensity ratio in terms of the fluorescence value with […], using FDSS7000 (Hamamatsu Photonics, K.K.). The test compound was dissolved in DMSO to 10 mM, and diluted with assay buffer to a final concentration of from 3×10^−11 M to 1×10^−5 M (DMSO final concentration of 0.1%). The EC50 value was determined from the fluorescence value with addition of the test compound at different concentrations, with the fluorescence value of the well with compound-free buffer added as 0%, and the fluorescence value of the well with 30 nM OX-A (Peptide Research Lab) as 100%.

hOX1R = hOX1R (Homo sapiens (Human), UniProt O43613); test: Test Example 1-2: Evaluation of activating activity for OX1R (calcium flux, HEK293 with forced expression); assay type: cell-based; settings: HEK293 cells expressing hOX1R; intracellular calcium; 30 nM OX-A as 100%; up to 1×10^−5 M
Procedure: as §1

[1] = test system: orexin/ataxin-3 Tg/+ mice; test: Test Example 4: Wake-promoting effect and cataplexy-free state elongation in orexin-deficient mice (EEG/EMG); assay type: in vivo; settings: oral; for DREM latency: cut-off 4 hours
Procedure: The experimental animals used were orexin/ataxin-3 Tg/+ mice (hereunder referred to as “Tg mice”, Ham et al., Neuron, 30,345-54,2001) with a C57BL/6 genetic background. Electroencephalogram and electromyogram measuring electrodes were surgically embedded into 12-week-old mice (±2 weeks) under isoflurane anesthesia. The solvent (0 mg/kg) or a solution of a sample (compound of Example 1 dissolved in the solvent: 0.3, 1 or 3 mg/kg) was orally administered 30 to 15 minutes before lighting was turned off. The solvent used was a 0.1 moL/L hydrochloric acid solution containing 5% (v/v) DMSO and 5% (v/v) Kolliphor™ EL. The electroencephalogram and electromyogram were recorded for about 24 hours, from 1 hour before lighting was turned off. The mice were repeatedly used, with a washout period of 2 days or longer. The electroencephalogram and electromyogram data obtained for each mouse were used to assess the sleep stage every epoch (10 seconds), using sleep analysis software (SleepSign: Kissei Comtec Co., Ltd.), up to a maximum of 4 hours (cut-off value). For the purpose of this experiment, cataplexy-like symptoms were defined as REM sleep appearing immediately after wakefulness (direct transition from wake to REM sleep (DREM)) for a contiguous period of 4 epochs or longer. DREM in mice is an analog of cataplexy (Exp Neurol. 2009; 217:46-54). The time until initial sleep appeared after lighting out for each mouse (sleep for contiguous 8 epochs or longer, excluding DREM)(sleep onset latency) and the time until initial DREM appeared (DREM latency) were measured. The numbers of mice were 14 in the vehicle group and Example 1 compound-administered groups. The sleep onset latency and DREM latency in a vehicle control group and a compound-administered group were compared by a Dunnet-type multiple comparison test following survival time analysis in consideration of the number of experiments and use of the same individuals, with a significance level of 5% at both ends for each.

[2] = test system: C57BL/6 line wild type (WT) male mice; test: Test Example 3: Wake-promoting effect by oral administration to wild type mice (EEG/EMG); assay type: in vivo
Procedure: The experimental animals used were C57BL/6 line wild type (WT) male mice. Electroencephalogram and electromyogram measuring electrodes were surgically embedded into 13-week-old mice under isoflurane anesthesia. The solvent (0 mg/kg) or a solution of the compound of Example 1 dissolved in the solvent (1, 3 or 10 mg/kg) was orally administered 30 to 15 minutes before lighting was turned off. The solvent used was a 0.1 moL/L hydrochloric acid solution containing 5% (v/v) DMSO and 5% (v/v) Kolliphor™ EL. The electroencephalogram and electromyogram were recorded for about 24 hours, from 1 hour before lighting was turned off. The mice were repeatedly used, with a washout period of 2 days or longer. The electroencephalogram and electromyogram data obtained for each mouse were used to assess the sleep stage every epoch (10 seconds), using sleep analysis software (SleepSign: Kissei Comtec Co., Ltd.). […] Using 16 mice in each administered group, the sleep onset latency in a solvent-administered group (control group) and an Example 1 compound-administered group were compared by a Dunnet-type multiple comparison test following survival time analysis in consideration of the number of experiments and use of the same individuals, with a significance level of 5% at both ends for each.

Sequence of hOX2R (O43614 whole entry): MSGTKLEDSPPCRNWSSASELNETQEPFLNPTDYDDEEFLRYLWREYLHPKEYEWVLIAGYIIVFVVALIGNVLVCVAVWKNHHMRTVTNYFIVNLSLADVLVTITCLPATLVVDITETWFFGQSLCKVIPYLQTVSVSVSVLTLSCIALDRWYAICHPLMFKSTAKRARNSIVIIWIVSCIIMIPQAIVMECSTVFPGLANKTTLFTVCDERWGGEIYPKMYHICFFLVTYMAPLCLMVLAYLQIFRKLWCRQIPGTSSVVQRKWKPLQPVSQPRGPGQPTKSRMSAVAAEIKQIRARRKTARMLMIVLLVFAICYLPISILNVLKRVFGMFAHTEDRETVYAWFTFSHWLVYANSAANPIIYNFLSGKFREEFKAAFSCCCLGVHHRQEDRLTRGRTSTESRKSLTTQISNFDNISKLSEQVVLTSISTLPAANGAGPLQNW
Sequence of hOX1R (O43613 whole entry): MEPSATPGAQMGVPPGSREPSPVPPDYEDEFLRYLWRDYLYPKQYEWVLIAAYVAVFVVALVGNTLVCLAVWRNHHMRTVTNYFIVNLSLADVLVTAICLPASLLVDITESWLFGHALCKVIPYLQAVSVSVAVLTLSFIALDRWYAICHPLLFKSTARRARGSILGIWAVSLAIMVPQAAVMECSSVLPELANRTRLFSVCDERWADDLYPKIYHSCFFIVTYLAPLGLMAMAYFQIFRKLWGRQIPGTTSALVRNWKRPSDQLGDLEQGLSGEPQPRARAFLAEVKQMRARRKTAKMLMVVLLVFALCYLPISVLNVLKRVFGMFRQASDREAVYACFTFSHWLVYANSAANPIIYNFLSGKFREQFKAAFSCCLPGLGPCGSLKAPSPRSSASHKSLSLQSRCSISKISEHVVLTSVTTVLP
Sequence of human OX2R (hOX2R) (O43614 whole entry): as the sequence (O43614 whole entry) above

Compound: CO[C@@H]1CN(c2ncc(F)cn2)CC[C@@H]1[C@@H]1C[C@H]2CC[C@@H](C1)N2[C@@H](C(N)=O)C1CC1 [Example 1, (R)-2-cyclopropyl-2-((1R,3S,5S)-3-((3S,4R)-1-(5-fluoropyrimidin-2-yl)-3-methoxypiperidin-4-yl)-8-azabicyclo[3.2.1]octan-8-yl)acetamide]
- Spontaneous movement (% of Control) (Male C57BL/6NCrl mice): 865 % of Control
- EC50 (human OX2R (hOX2R)): 0.99 nM
- EC50 (hOX2R): 2.3 nM
- EC50 (hOX1R): 4.7 µM
- sleep onset latency ([1]; 0.3 mg/kg): 0.31 h
- DREM latency ([1]; 0.3 mg/kg): 1.50 h
- sleep onset latency ([1]; 1 mg/kg): 0.64 h
- DREM latency ([1]; 1 mg/kg): 2.26 h
- sleep onset latency ([1]; 3 mg/kg): 2.42 h
- DREM latency ([1]; 3 mg/kg): 4.00 h
- sleep onset latency ([2]; 1 mg/kg): 0.28 h
- sleep onset latency ([2]; 3 mg/kg): 0.44 h
- sleep onset latency ([2]; 10 mg/kg): 2.07 h

Compound: CO[C@@H]1CN(c2ncc(F)cn2)CC[C@@H]1[C@@H]1C[C@H]2CC[C@@H](C1)N2[C@@H](C(N)=O)C(C)C [Example 2, (R)-2-((1R,3S,5S)-3-((3S,4R)-1-(5-fluoropyrimidin-2-yl)-3-methoxypiperidin-4-yl)-8-azabicyclo[3.2.1]octan-8-yl)-3-methylbutaneamide]
- Spontaneous movement (% of Control) (Male C57BL/6NCrl mice): 253 % of Control

Compound: C[C@H]1C[C@@H]([C@@H]2C[C@H]3CC[C@@H](C2)N3[C@@H](C(N)=O)C2CC2)CCN1c1ncc(F)cn1 [Example 4, (R)-2-cyclopropyl-2-((1R,3S,5S)-3-((2S, 4S)-1-(5-fluoropyrimidin-2-yl)-2-methylpiperidin-4-yl)-8-azabicyclo[3.2.1]octan-8-yl)acetamide]
- EC50 (hOX2R): 4.4 nM
- EC50 (hOX1R): 3.9 µM

Compound: CCO[C@@H]1CN(c2ncc(Cl)cn2)CC[C@@H]1[C@@H]1C[C@H]2CC[C@@H](C1)N2[C@@H](C(N)=O)C1CC1 [Example 3, (R)-2-((1R,3S,5S)-3-((3S,4R)-1-(5-chloropyrimidin-2-yl)-3-ethoxypiperidin-4-yl)-8-azabicyclo[3.2.1]octan-8-yl)-2-cyclopropyl acetamide]
- EC50 (hOX2R): 4.3 nM
- EC50 (hOX1R): 1.4 µM

From patent publication US11479552B2, “Substituted piperidine compounds and their use” (Eisai R&D Management Co., Ltd., priority 2020, dated 2022)
